Measured values: US10130630B2, “BTK inhibitors” (MERCK SHARP & DOHME CORP., priority 2014, dated 2018)

Assays:
[1] = target: T1, BTK enzyme (full-length BTK, hBTK) (Homo sapiens, UniProt Q06187); assay: Btk enzyme activity assay (LANCE TR-FRET); type: biochemical; settings: 50 pM hBTK, 25 μM ATP, 60 minute compound and enzyme incubation, read-out: BTK binding IC50
T1 construct: recombinant protein from baculovirus-transfected Sf9 cells: full-length BTK, 6HIS-tag cleaved; 6HIS (cleaved yes); made in house; host or cells: baculovirus-transfected Sf9 cells
In short: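 Full-length human BTK from Sf9 cells (His-tag cleaved; 50 pM final) was preincubated 60 min with compound in pH 7.5 HEPES/MgCl2 buffer. Reaction then ran 120 min with 2 μM biotin-A5 peptide and 25 μM ATP, read by TR-FRET (Eu anti-pTyr/streptavidin-Dylight 650, 665/615 nm ratio). IC50 came from a 4-parameter fit.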

[2] = test system: adenosine uptake into HeLa cells; assay: [3H]Adenosine uptake assay in HeLa cells; type: cell-based; settings: Homo sapiens, HeLa, 60 minutes uptake, read-out: ADU inhibition IC50 (adenosine uptake inhibition potency)

T1 sequence (Q06187 whole entry): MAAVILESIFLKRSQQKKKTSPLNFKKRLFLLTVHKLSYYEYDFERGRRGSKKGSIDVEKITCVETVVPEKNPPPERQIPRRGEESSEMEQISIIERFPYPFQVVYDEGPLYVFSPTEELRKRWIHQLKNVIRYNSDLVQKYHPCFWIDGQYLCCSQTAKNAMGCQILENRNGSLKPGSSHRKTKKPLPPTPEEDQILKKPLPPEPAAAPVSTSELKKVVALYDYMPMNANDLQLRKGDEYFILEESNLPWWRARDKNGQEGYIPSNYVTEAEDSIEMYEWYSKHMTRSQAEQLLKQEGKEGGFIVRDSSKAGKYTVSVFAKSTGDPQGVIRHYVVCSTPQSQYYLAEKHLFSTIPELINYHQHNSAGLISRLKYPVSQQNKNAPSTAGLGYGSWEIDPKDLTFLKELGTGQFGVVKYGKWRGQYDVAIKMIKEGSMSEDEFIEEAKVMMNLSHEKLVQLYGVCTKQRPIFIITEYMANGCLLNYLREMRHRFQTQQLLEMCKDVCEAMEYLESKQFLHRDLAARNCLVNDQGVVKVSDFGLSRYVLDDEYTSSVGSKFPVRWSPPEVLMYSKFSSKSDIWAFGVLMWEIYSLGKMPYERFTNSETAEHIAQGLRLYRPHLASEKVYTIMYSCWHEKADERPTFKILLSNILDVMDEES

Row | IC50 [1] | IC50 [2] | Compound
1 | 0.528 nM | 524 nM | COc1cc(C(=O)Nc2cc(C(F)(F)F)ccn2)ccc1-c1nc([C@H]2CC[C@@H]3CC4(CC4)C(=O)N3C2)n2ccnc(N)c12 [Compound 47, 4-{8-amino-3-[(6′S,8a′R)-3′-oxohexahydrospiro[cyclopropane-1,2′-indolizin]-6′-yl]imidazo[1,5-a]pyrazin-1-yl}-3-methoxy-N-[4-(trifluoromethyl)pyridin-2-yl]benzamide]
2 | 1.19 nM | 998 nM | CCOc1cc(C(=O)Nc2cc(C(F)(F)F)ccn2)ccc1-c1nc([C@H]2CC[C@@H]3CC4(CC4)C(=O)N3C2)n2ccnc(N)c12 [Compound 48, 4-{8-amino-3-[(6′S,8a′R)-3′-oxohexahydrospiro[cyclopropane-1,2′-indolizin]-6′-yl]imidazo[1,5-a]pyrazin-1-yl}-3-ethoxy-N-[4-(trifluoromethyl)pyridin-2-yl]benzamide]
